Results on 14 compounds are retold here after patent US6444812B1, “Intermediate compounds in the preparation of farnnesyl transferase inhibiting 1,8-annelated quinolinone derivatives substituted with N-or C linked imidazoles” (Janssen Pharmaceutica N.V., priority 1997, dated 2002).

The test system of data set [1] is NIH 3T3 cells transformed by the T24 activated human H-ras gene. Description: Ras-Transformed Cell Phenotype Reversion Assay. The data set is classed as cell-based, mouse. The note with it: cell counts after 72 hours proliferation. An excerpt:
“Ras-Transformed Cell Phenotype Reversion Assay”
Insertion of activated oncogenes such as the mutant ras gene into mouse NIH 3T3 cells converts the cells to a transformed phenotype. The cells become tumorigenic, display anchorage independent growth in semi-solid medium and lose contact inhibition. Loss of contact inhibition produces cell cultures which no longer form uniform monolayers. Rather, the cells pile up into multicellular nodules and grow to very high saturation densities in plastic tissue culture dishes. Agents such as protein farnesyl transferase inhibitors which revert the ras transformed phenotype restore the uniform monolayer growth pattern to cells in culture. This reversion is easily monitored by counting the number of cells in tissue culture plates. Transformed cells will achieve higher cell numbers than cells which have reverted to an untransformed phenotype. Compounds which revert the transformed phenotype should produce antitumor effects in tumors bearing ras gene mutations.
Compounds are screened in tissue culture in NIH 3T3 cells transformed by the T24 activated human H-ras gene. Cells are seeded at an initial density of 200,000 cells per well (9.6 cm^2 surface area) in six-well cluster tissue culture plates. Test compounds are immediately added to 3.0 ml cell growth medium in a 3.0 μl volume of DMSO, with a final concentration of DMSO in the cell growth medium of 0.1%. The test compounds are run at concentrations of 5, 10, 50, 100, and 500 nM along with a DMSO treated vehicle control. […] Then the cells are detached in 1.0 ml trypsin-EDTA cell dissociation medium and counted on a Coulter particle counter.
Cell numbers expressed as cells per well are measured using a Coulter Particle Counter.
All cell counts were corrected for the initial cell input density by subtracting 200,000.
Control cell counts=[cell counts from cells incubated with DMSO vehicle−200,000]
Test compound cell counts=[cell counts from cells incubated with test compound−200,000]. [formula]

For data set [2], the system named is T24 activated human H-ras gene transformed NIH 3T3 fibroblast cells (T24 cells). Description: Farnesyl Protein Transferase Inhibitor Secondary Tumor Model. Type of data set: in vivo, Nude mice. The note with it: po, 15 days of treatment. From the text:
“Farnesyl Protein Transferase Inhibitor Secondary Tumor Model”
The enzyme farnesyl protein transferase catalyzes the covalent attachment of a farnesyl moiety derived from farnesyl pyrophosphate to the oncogene product p21^ras. This directs p21^ras to attach to plasma membranes. Once attached to plasma membranes, mutant or oncogenic forms of p21^ras will provide a signal for the transformation and uncontrolled growth of malignant tumor cells. Therefore, inhibitors of protein farnesyltransferase will prevent the membrane attachment of p21^ras and inhibit growth of ras-transformed tumors.
Nude mice are inoculated with 1×10^6 of T24 activated human H-ras gene transformed NIH 3T3 fibroblast cells (T24 cells), subcutaneously in the inguinal region. After three days to allow tumors to become established, treatment with test compounds is begun via the oral route. The test compounds are dissolved in a 20% β-cyclodextrin in 0.1 N HCl solution and administered orally as 0.1 ml of compound solution per 10 g mouse body weight. Routinely used doses are 6.25, 12.5 and 25 mg/kg. Body weights and tumor sizes are monitored during the ensuing 15 days of treatment. At the end of treatment, animals are sacrificed and tumors are weighed.
The “mean vehicle treated tumor weight” is defined as the mean tumor weight from 10 to 15 mice […].
The “mean tumor weight” is defined as the mean tumor weight from 10 to 15 mice […]. [formula]

The target of data set [3] is T1, Human farnesyl protein transferase (Homo sapiens, UniProt P49354+P49356).
T1 construct: grown as monolayer cell cultures were used as a source of human enzyme; endogenous in cells; host or cells: KHOS (Kirsten virus transformed human osteosarcoma) cells from ATCC, grown as solid tumors in nude mice or as monolayer cultures; The enzyme was partially purified by a 30-50% ammonium sulfate cut and Q Fast Flow Sepharose
Kind of data set: In Vitro Assay for Inhibition of Farnesyl Protein Transferase (scintillation proximity assay). Type of data set: biochemical. The note with it: concentration of test compound producing 50% inhibition of enzyme activity; 60 min at 37° C. The method, then: “In Vitro Assay for Inhibition of Farnesyl Protein Transferase”
Human farnesyl protein transferase was prepared essentially as described (Y. Reiss et al., Methods: A Companion to Methods in Enzymology, vol. 1, 241-245, 1990). Kirsten virus transformed human osteosarcoma (KHOS) cells (American Type Culture Collection, Rockville, Md., USA) grown as solid tumors in nude mice or grown as monolayer cell cultures were used as a source of human enzyme. Briefly, cells or tumors were homogenized in buffer containing 50 mM Tris, 1 mM EDTA, 1 mM EGTA and 0.2 mM phenylmethylsulfonylfluoride (pH 7.5). The homogenates were centrifuged 28,000×g for 60 min and the supernatants collected. […] Fractions containing 4 to 5 ml volumes of column eluate were collected and analyzed for farnesyl protein transferase activity. […]
The activity of farnesyl protein transferase was measured using the Farnesyl Transferase [^3H] […] The amount of [^3H]-farnesyl-(Cys)-biotin lamin B peptide synthesized in the presence or absence of test compounds was quantified as cpm by counting on a Wallac Model 1480 Microbeta Liquid Scintillation Counter. […] The protein farnesyl transferase activity observed in the presence of test compound was normalized to farnesyl transferase activity in the presence of 10% DMSO and expressed as percent inhibition. […]
A general note: In a scintillation proximity assay essentially only radioactivity close to the scintillant gives light.

The melting point is the temperature of the solid-liquid transition. `Cn1cncc1C(c1ccc(Cl)cc1)c1cc2c3c(c1)c(-c1cccc(Cl)c1)cc(=O)n3CC2.O` (racemic) (hydrate or solvate) [Compound 6, (±)-6-(3-chlorophenyl)-8-[(4-chlorophenyl)(1-methyl-1H-imidazol-5-yl)methyl]-1,2-dihydro-4H-pyrrolo[3,2,1-ij]quinolin-4-one monohydrate] yielded a melting point of 147 °C.
The term IC50 denotes the concentration that inhibits the measured activity by half. A high value points to weaker potency in that assay. Compound `Cn1cncc1C(O)(c1ccc(Cl)cc1)c1cc2c3c(c1)c(-c1cccc(Cl)c1)cc(=O)n3CC2` (racemic) [Compound 5, (±)-6-(3-chlorophenyl)-8-[(4-chlorophenyl)hydroxy(1-methyl-1H-imidazol-5-yl)methyl]-1,2-dihydro-4H-pyrrolo[3,2,1-ij]quinolin-4-one] displayed a melting point of 213.6 °C. In data set [1] (NIH3T3), this compound gave an IC50 of 7.8 nM.
In data set [1] (NIH3T3), `Cn1cncc1C(c1ccc(Cl)cc1)c1cc2c3c(c1)c(-c1cccc(Cl)c1)cc(=O)n3CC2` (racemic) [Compound 6, (±)-6-(3-chlorophenyl)-8-[(4-chlorophenyl)(1-methyl-1H-imidazol-5-yl)methyl]-1,2-dihydro-4H-pyrrolo[3,2,1-ij]quinolin-4-one monohydrate] displayed an IC50 of 32 nM.
In turn, `Cn1cncc1C(N)(c1ccc(Cl)cc1)c1cc2c3c(c1)c(-c1cccc(Cl)c1)cc(=O)n3CC2` (racemic) [Compound 8, (±)-8-[amino(4-chlorophenyl)(1-methyl-1H-imidazol-5-yl)methyl]-6-(3-chlorophenyl)-1,2-dihydro-4H-pyrrolo[3,2,1-ij]quinolin-4-one] gave an IC50 in data set [1] (NIH3T3) of 6.4 nM. The “% reduction final tumor weight” value in data set [2] (6.25 mg/kg bid) was 41%; in data set [2] (12.25 mg/kg bid) it was 44%; in data set [2] (25 mg/kg bid) it was 49%.
Take `Cn1cncc1C(O)(c1ccc(Cl)cc1)c1cc2c3c(c1)c(-c1cccc(Cl)c1)cc(=O)n3CO2` (racemic) [Compound 15, (±)-6-(3-chlorophenyl)-8-[(4-chlorophenyl)hydroxy(1-methyl-1H-imidazol-5-yl)methyl]-2H,4H-oxazolo[5,4,3-ij]quinolin-4-one]: the IC50 in data set [1] (NIH3T3) is 48 nM.
Same read-out and setting: for `Cn1cncc1C(c1ccc(Cl)cc1)c1cc2c3c(c1)c(-c1cccc(Cl)c1)cc(=S)n3CC2` (racemic) [Compound 27, (±)-6-(3-chlorophenyl)-8-[(4-chlorophenyl)(1-methyl-1H-imidazol-5-yl)methyl]-1,2-dihydro-4H-pyrrolo[3,2,1-ij]quinoline-4-thione] the value was 37.1 nM.
The compound `Cc1nc2cc(C(O)(c3ccc(Cl)cc3)c3cncn3C)cc3c(-c4cccc(Cl)c4)cc(=O)n1c23` (racemic) [Compound 30, (±)-6-(3-chlorophenyl)-8-[(4-chlorophenyl)hydroxy(1-methyl-1H-imidazol-5-yl)methyl]-2-methyl-4H-imidazo[4,5,1-ij]quinolin-4-one] yielded a melting point of 170 °C. Also, 373 nM corresponded to half-maximal inhibition in data set [1] (NIH3T3) (IC50).
In data set [1] (NIH3T3), `Cn1cncc1C(O)(c1ccc(Cl)cc1)c1cc2nc(-c3ccccc3)n3c(=O)cc(-c4cccc(Cl)c4)c(c1)c23` (racemic) [Compound 31, (±)-6-(3-chlorophenyl)-8-[(4-chlorophenyl)hydroxy(1-methyl-1H-imidazol-5-yl)methyl]-2-phenyl-4H-imidazo[4,5,1-ij]quinolin-4-one] displayed an IC50 of more than 500 nM.
In data set [1], `Cn1cncc1C(O)(c1ccc(Cl)cc1)c1cc2[nH]c(=O)n3c(=O)cc(-c4cccc(Cl)c4)c(c1)c23` (racemic) [Compound 34, (±)-6-(3-chlorophenyl)-8-[(4-chlorophenyl)hydroxy(1-methyl-1H-imidzol-5-yl)methyl]-4H-imidazo[4,5,1-ij]quinoline-2,4(1H)-dione] came in with an IC50 of more than 500 nM.
`Cn1cncc1C(O)(c1ccc(Cl)cc1)c1cc2nnn3c(=O)cc(-c4cccc(Cl)c4)c(c1)c23` (racemic) [Compound 35, (±)-6-(3-chlorophenyl)-8-[(4-chlorophenyl)hydroxy(1-methyl-1H-imidazol-5-yl)methyl]-4H-1,2,3-triazolo[4,5,1-ij]quinolin-4-one]: the melting point came to 226 °C. The same compound returned an IC50 in data set [1] (NIH3T3) of more than 500 nM.
For `O=c1cc(-c2cccc(Cl)c2)c2cc(C(c3ccc(Cl)cc3)n3ccnc3)cc3c2n1CCC3` (racemic) [Compound 36, (±)-7-(3-chlorophenyl)-9-[(4-chlorophenyl)-1H-imidazol-1-ylmethyl]-2,3-dihydro-1H,5H-benzo[ij]quinolizin-5-one], the IC50 in data set [3] was found to be 21 nM.
Compound `O=C1CC(c2cccc(Cl)c2)c2cc(C(c3ccc(Cl)cc3)n3ccnc3)cc3c2N1CCC3` (racemic) [Compound 37, (±)-7-(3-chlorophenyl)-9-[(4-chlorophenyl)-1H-imidazol-1-ylmethyl]-2,3,6,7-tetrahydro-1H,5H-benzo[ij]quinolizin-5-one] came in with a melting point of 93.6 °C.
In data set [1], `Cn1cncc1C(N)(c1ccc(Cl)cc1)c1cc2c3c(c1)c(-c1cccc(Cl)c1)cc(=O)n3CC2` (centres unmarked) [Compound 10, (B)-8-[amino(4-chlorophenyl)(1-methyl-1H-imidazol-5-yl)methyl]-6-(3-chlorophenyl)-1,2-dihydro-4H-pyrrolo[3,2,1-ij]quinolin-4-on] showed an IC50 of 3.2 nM.
In turn, `O=c1cc(-c2cccc(Cl)c2)c2cc(C(c3ccc(Cl)cc3)n3ccnc3)cc3c2n1CC3` (centres unmarked) [Compound 38] came in with a concentration for half-maximal inhibition (IC50) in data set [3] of 15 nM.
